# Measurements from patent US20120142645A1, “NEUROACTIVE STEROID COMPOSITIONS AND METHODS OF USE FOR LOWERING CHOLESTEROL” (priority 2009, published 2012).
# Several values for one entry are separate records, joined by “and”; a condition that tells them apart may be missing. Equal values may be shown once. Entries after “also recorded” stand apart in the source; their conditions may differ. Marks after values point to notes of the source that are not given here.
# Experiments:
# Assay type in all cases: in vivo, human
# [1] = tested on: patients with schizophrenia or schizoaffective disorder; assay: Side effect profile and tolerability (Hillside AE Form); same trial
# Source text: (§1) During the screening visit (Visit 1), patients received a physical exam, vital signs, and electrocardiogram (EKG), as well as baseline laboratory measures consisting of serum electrolytes, glucose, creatinine, blood urea nitrogen (chemistry 7 panel), liver function tests, complete blood count (CBC), urinalysis, urine toxicology test, thyroid stimulating hormone (TSH), and prolactin, and serum pregnancy test if female. These tests were also repeated at the completion of the study (Visit 6). In addition, patients received an interim EKG 4 weeks post-randomization, as well as a serum pregnancy test if female (Visit 4). Patients also received a chemistry 7 panel, CBC, and liver function tests at Visits 2, 3, 4, and 5 (i.e., at all study visits). Psychiatric symptoms were assessed at baseline using the Scale for the Assessment of Negative Symptoms (Andreasen, 1983), the Positive and Negative Symptom Scale (PANSS; Kay et al., 1987), the Calgary Depression Rating Scale (CDRS; Addington et al., 1990), the Clinical Global Impressions Improvement (CGI-I) and Severity (CGI-S) scales, the Barnes Akathisia Scale (BAS; Barnes, 1989), the Simpson Angus Scale for Extrapyramidal Symptoms (SAS; Simpson & Angus, 1970), the Quality of Life Scale (QOL; Heinrichs et al., 1984), and the Hillside Side Effects Scale. One research nurse with five years of experience in the conduction of schizophrenia clinical trials completed both psychiatric and cognitive assessments throughout the study, and was trained to one point of divergence on each PANSS item.
# [2] = tested on: patients with schizophrenia or schizoaffective disorder; assay: Psychiatric rating scales (PANSS, CGI, Calgary, SAS, BAS, AIMS, Quality of Life); same trial; parameters: CGI-S score / Calgary Depression Scale, difference PG vs placebo / Heinrich Carpenter subscore Interpersonal and social work, difference PG vs placebo / Heinrich Carpenter subscore Occupational role function, difference PG vs placebo / Heinrich Carpenter subscore Other residual symptoms, difference PG vs placebo: scale not given here; settings: for Heinrich Carpenter Quality of Life Scale, difference PG vs placebo: not significant (p=0.32); for PANSS General subscore / PANSS Negative symptoms subscore / PANSS Positive symptoms subscore / PANSS total score: mean; for CGI-I score: Week 8 (final), 2=much improved, 3=minimally improved, n = 9
# Protocol: Study Design and Subjects. Disclosed herein is a placebo-controlled, double-blind, parallel group, randomized trial of adjunctive pregnenolone for the treatment of cognitive and negative symptoms in patients with schizophrenia or schizoaffective disorder. […] Patients received a total of 6 study visits, which took place every two weeks. […] The trial was conducted at a single site, the Durham Veterans Affairs Medical Center in Durham, N.C. The protocol was approved by the local institutional review board and conducted under FDA Investigational New Drug (IND) #71,768. The ClinicalTrials.gov number for this study is NCT00560937.
# as §1
# [3] = tested on: subjects with mild traumatic brain injury (TBI); assay: Total cholesterol in mild TBI subjects, pregnenolone 8 weeks (100, 300, then 500 mg/day oral) versus placebo; settings: baseline to study completion (8 weeks), t-test of change scores p=0.035, FIG. 3
# Source text: Ten (10) additional subjects with mild TBI were given a placebo.
# [4] = change from baseline pre-randomization, n = 9
# [5] = change from baseline pre-randomization, n = 9, mild in all subjects
# [6] = change from baseline pre-randomization, n = 9, mild in all subjects, listed as pregnenolone
# [7] = Difference in changes from Week 0-8
# [8] = Difference in changes from Week 0-8, points
# [9] = Difference in changes from Week 0-8, points, listed as pregnenolone
smiles,measurement,setting,value
"CC(=O)[C@H]1CC[C@H]2[C@@H]3CC=C4C[C@@H](O)CC[C@]4(C)[C@H]3CC[C@]12C [PG, pregnenolone]",Serious adverse event related to study medication,[1]; 8-week trial,No patients receiving pregnenolone experienced a serious adverse event
same,Side effect: Akathisia,[1]; [4],0 N (%)
same,Side effect: All Other Side Effects,[1]; [4],0 N (%)
same,Side effect: Blurred Vision,[1]; [4],0 N (%)
same,Side effect: Diarrhea,[1]; [4],0 N (%)
same,Side effect: Drowsiness,[1]; [4],0 N (%)
same,Side effect: Excitation/Agitation,[1]; [4],0 N (%)
same,Side effect: Headache,[1]; [4],0 N (%)
same,Side effect: Impaired Sexual Performance,[1]; [4],0 N (%)
same,Side effect: Insomnia,[1]; [4],0 N (%)
same,Side effect: Joint Pain/Stiffness,[1]; [4],0 N (%)
same,Side effect: Malaise,[1]; [4],0 N (%)
same,Side effect: Nasal Congestion,[1]; [4],0 N (%)
same,Side effect: Peripheral Edema,[1]; [4],0 N (%)
same,Side effect: Rigidity,[1]; [4],0 N (%)
same,Side effect: Sweating,[1]; [4],0 N (%)
same,Side effect: Tremor,[1]; [4],0 N (%)
same,Side effect: Hypertension,"[1]; change from baseline pre-randomization, n = 9, mild (<145/90)",1 (11%)^b N (%)
same,Side effect: Cold Extremities,[1]; [5],1 (11%)^a N (%)
same,Side effect: Decreased Interest in Sex,[1]; [5],1 (11%)^a N (%)
same,"Side effect: Disorientation (to date, address, mayor, or MD name)",[1]; [5],2 (22%)^a N (%)
same,Side effect: Dry mouth,[1]; [5],1 (11%)^a N (%)
same,Side effect: Muscle Pain/Stiffness,[1]; [5],1 (11%)^a N (%)
same,Side effect: Restlessness,[1]; [5],2 (22%)^a N (%)
same,Side effect: Cold Extremities,[1]; [6],one report of mild cold extremities; also recorded: one instance of mild cold extremities
same,Side effect: Muscle Pain/Stiffness,[1]; [6],one report of mild muscle pain/stiffness; also recorded: one instance of mild muscle pain/stiffness
same,Side effect: Restlessness,[1]; [6],two reports of mild restlessness; also recorded: two instances of mild restlessness
same,Tolerability,"[1]; doses up to 500 mg/day, 8 weeks",very well-tolerated
same,"Weight gain, blood pressure, or pulse rate changes",[1]; during the course of the study,"did not demonstrate significant weight gain, blood pressure, or pulse rate changes"
same,"CGI-S, change",[2]; Changes from Week 0-8,−0.1
same,"Calgary Depression Scale, change","[2]; Changes from Week 0-8, n = 7",−1.6
same,"AIMS, change","[2]; Changes from Week 0-8, n = 8",−1.0
same,"Barnes Akathisia Scale, change","[2]; Changes from Week 0-8, n = 8",−0.4
same,"Heinrich Carpenter Quality of Life Scale, change","[2]; Changes from Week 0-8, n = 8",7.9
same,"Heinrich Carpenter subscore Interpersonal and social work, change","[2]; Changes from Week 0-8, n = 8",5.4
same,"Heinrich Carpenter subscore Occupational role function, change","[2]; Changes from Week 0-8, n = 8",0.9
same,"Heinrich Carpenter subscore Other residual symptoms, change","[2]; Changes from Week 0-8, n = 8",1.6
same,"PANSS General, change","[2]; Changes from Week 0-8, n = 8",−4.5
same,"PANSS Negative symptoms, change","[2]; Changes from Week 0-8, n = 8",−2.8
same,"PANSS Positive symptoms, change","[2]; Changes from Week 0-8, n = 8",−2.6
same,"PANSS total, change","[2]; Changes from Week 0-8, n = 8",−9.9
same,"Simpson-Angus Scale, change","[2]; Changes from Week 0-8, n = 8",−0.1
same,"AIMS, difference PG vs placebo",[2]; [7],−0.6 ± 0.7
same,"Calgary Depression Scale, difference PG vs placebo",[2]; [7],0.4 ± 1.6
same,"Heinrich Carpenter subscore Interpersonal and social work, difference PG vs placebo",[2]; [7],3.6 ± 3.2
same,"Heinrich Carpenter subscore Occupational role function, difference PG vs placebo",[2]; [7],0.8 ± 0.6
same,"Heinrich Carpenter subscore Other residual symptoms, difference PG vs placebo",[2]; [7],0.9 ± 2.2
same,"PANSS General, difference PG vs placebo",[2]; [7],−1.3 ± 2.1
same,"PANSS Positive symptoms, difference PG vs placebo",[2]; [7],−1.6 ± 0.8
same,"Simpson-Angus Scale, difference PG vs placebo",[2]; [7],−0.2 ± 0.4
same,"PANSS Negative symptoms, difference PG vs placebo",[2]; [8],−1.5 ± 1.4
same,"PANSS Negative symptoms, difference PG vs placebo",[2]; [9],1.53
same,"PANSS total, difference PG vs placebo","[2]; Difference in changes from Week 0-8, points, not significant (p=0.24)",−4.4 ± 3.6
same,"Heinrich Carpenter Quality of Life Scale, difference PG vs placebo",[2]; [8],5.3 ± 5.1
same,"Heinrich Carpenter Quality of Life Scale, difference PG vs placebo",[2]; [9],5.27±5.07 and 5.27
same,AIMS score,[2]; Week 0 (baseline),1.6
same,Barnes Akathisia Scale score,[2]; Week 0 (baseline),0.4
same,CGI-S score,[2]; Week 0 (baseline),4.0
same,Calgary Depression Scale score,[2]; Week 0 (baseline),2.4
same,Heinrich Carpenter Quality of Life Scale score,[2]; Week 0 (baseline),47.5
same,Heinrich Carpenter subscore Interpersonal and social work,[2]; Week 0 (baseline),17.9
same,Heinrich Carpenter subscore Occupational role function,[2]; Week 0 (baseline),1.9
same,Heinrich Carpenter subscore Other residual symptoms,[2]; Week 0 (baseline),27.8
same,Simpson-Angus Scale score,[2]; Week 0 (baseline),1.0
same,CGI-S score,"[2]; Week 0 (baseline), listed as pregnenolone",4.00±0.50
same,PANSS General subscore,[2]; Week 0 (baseline),35.5
same,PANSS Negative symptoms subscore,[2]; Week 0 (baseline),23.4
same,PANSS Positive symptoms subscore,[2]; Week 0 (baseline),13.6
same,PANSS total score,[2]; Week 0 (baseline),72.5
same,AIMS score,[2]; Week 4,0.9
same,Barnes Akathisia Scale score,[2]; Week 4,0.4
same,Simpson-Angus Scale score,[2]; Week 4,1.3
same,PANSS General subscore,[2]; Week 4,34.3
same,PANSS Negative symptoms subscore,[2]; Week 4,23.2
same,PANSS Positive symptoms subscore,[2]; Week 4,12.8
same,PANSS total score,[2]; Week 4,67.9
same,AIMS score,[2]; Week 8,0.6
same,Barnes Akathisia Scale score,[2]; Week 8,0.0
same,Calgary Depression Scale score,[2]; Week 8,0.9
same,Heinrich Carpenter Quality of Life Scale score,[2]; Week 8,55.4
same,Heinrich Carpenter subscore Interpersonal and social work,[2]; Week 8,23.3
same,Heinrich Carpenter subscore Occupational role function,[2]; Week 8,2.8
same,Heinrich Carpenter subscore Other residual symptoms,[2]; Week 8,29.4
same,Simpson-Angus Scale score,[2]; Week 8,0.9
same,CGI-I score,[2],2.11
same,CGI-I score,[2]; listed as pregnenolone,2.11±0.33 and 2.11
same,CGI-S score,[2]; Week 8 (post-treatment),3.9
same,CGI-S score,"[2]; Week 8 (post-treatment), listed as pregnenolone",3.89±0.33
same,PANSS General subscore,[2]; Week 8,31.2
same,PANSS Negative symptoms subscore,[2]; Week 8,20.6
same,PANSS Positive symptoms subscore,[2]; Week 8,11.9
same,PANSS total score,[2]; Week 8,63.6
same,Total cholesterol (percent change) compared to placebo,[3],statistically significant reduction
same,Total cholesterol (percent change) compared to placebo,[3]; listed as pregnenolone,reduced
